Usually IC50 stands for the midpoint of a concentration-inhibition curve. A low value points to greater potency.

Four molecules from patent US20110237686A1, “FORMULATIONS AND METHODS OF USE” (Cerulean Pharma Inc, priority 2010, published 2011) can be followed below.

Series [1] deals with B16.F10 cells. In words: CellTiter-Glo Luminescent Cell Viability Assay (cytotoxicity of nanoparticles). It counts as cell-based, mouse. To be noted: for IC50: Mus musculus, B16.F10 cells, 24, 48 and 72 hours of incubation tested, time of the IC50 not stated. As for the experimental part:
The Cytotoxicity of nanoparticles formed from polymer drug conjugates was evaluated using the following protocol. […] B16.F10 cells, grown to 85-90% confluency in 150 cm^2 flasks (passage<30), were resuspended in media (MEM-alpha, 10% HI-FBS, 1× antibiotic-antimycotic) and added to 96-well opaque-clear bottom plates at a concentration of 1500 cells/well in 200 μL/well. The cells were incubated at 37° C. with 5% CO2 for 24 hours. The following day, serial dilutions of 2×concentrated particles and 2× concentrated free drug were made in 12-well reservoirs with media to specified concentrations. The media in the plates was replaced with 100 μL of fresh media and 100 μL of the corresponding serially diluted drug. Three sets of plates were prepared with duplicate treatments. Following 24, 48 and 72 hours of incubation at 37° C. with 5% CO2, the media in the plates was replaced with 100 μL of fresh media and […] of CTG solution, and then incubated for 5 minutes on a plate shaker at room temperature set to 450 rpm and allowed to rest for 15 minutes. Viable cells were measured by luminescence using a microtiter plate reader. The data was plotted as % viability vs. concentration and standardized to untreated cells.

Series [2] can be described thus: Lyophilization using HP-β-CD, freezing with liquid nitrogen and vacuum at room temperature.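 Also: cyclodextrins or their derivatives tested as cryoprotectant during lyophilization of PEGylated nanoparticles, assessing particle size growth attributed to PEG crystallization.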 The class given is physicochemical. To be noted: PEGylated nanoparticles A, polymer 31.25 mg/mL, cryoprotectant 40 mg/mL (1.28:1 w/w), vacuum at room temperature.
Method: In this example, a new strategy of using cyclodextrins and their derivatives as a cryoprotectant was tested. […] A cryoprotectant is needed to lyophilize liquid formulation that contain PEGylated nanoparticles A (Entries #1 and #2).
Series [3] is described as follows: Lyophilization of stealth liposome (Doxil). To be noted: lipids 16 mg/mL, Sucrose lyophilization cycle, post lyophilization. It counts as physicochemical.
Series [4] in a line: Simple lyophilization of PLGA7K-PVA-PEG2K-30 and PLGA7K-PVA-PEG5K-30 PEGylated nanoparticle formulations. The class given is physicochemical. To be noted: 2K PEG PLGA nanoparticles 20 mg/mL, cryoprotectant 20 mg/mL (1:1 w/w). From the text:
The results are similar to that obtained for PEGylated nanoparticles A except for SB-β-CD. The result from SB-β-CD supported the H-bonding mechanism for cryoprotection of PEGylated PLGA nanoparticles since SB-β-CD has less hydroxyl groups than α-CD, γ-CD and HP-β-CD (about ⅓ of —OH groups of β-CD are substituted by sulfobutyl groups).

Series [5] can be described thus: Cryoprotectant screen, sucrose lyophilization cycle. The class given is physicochemical. To be noted: PEGylated nanoparticles A; for Dv90 / PDI / Zave: reconstituted. As for the experimental part:
A cryoprotectant screen was performed as follows.
These conditions are shown below in Table 21.

The mark [6] stands for this setting: cryoprotectant 100 mg/mL (6.25:1 w/w lipid).
Where [7] appears, read: cryoprotectant 150 mg/mL (12.5:1 w/w lipid).
Where [8] appears, read: cryoprotectant 200 mg/mL (18.5:1 w/w lipid).
[9] abbreviates: polymer 10.42 mg/mL (Doce. 0.50), cryoprotectant 100 mg/mL (9.6:1 w/w).
[10] abbreviates: polymer 20.83 mg/mL (Doce. 1.00), cryoprotectant 100 mg/mL (4.8:1 w/w).
Setting [11] is: polymer 26.05 mg/mL (Doce. 1.25), cryoprotectant 100 mg/mL (3.8:1 w/w).
Where [12] appears, read: polymer 31.25 mg/mL (Doce. 1.5), cryoprotectant 100 mg/mL (3.2:1 w/w).

In turn, `COc1cccc2c1C(=O)c1c(O)c3c(c(O)c1C2=O)C[C@@](O)(C(=O)CO)C[C@@H]3O[C@H]1C[C@H](N)[C@H](O)[C@H](C)O1` [Free doxorubicin, doxorubicin] gave an IC50 in series [1] of 14 µM.
`CC(=O)O[C@H]1C(=O)[C@@]2(C)[C@H]([C@H](OC(=O)c3ccccc3)[C@]3(O)C[C@H](OC(=O)[C@H](O)[C@@H](NC(=O)c4ccccc4)c4ccccc4)C(C)=C1C3(C)C)[C@]1(OC(C)=O)CO[C@@H]1C[C@@H]2O` [Free paclitaxel, paclitaxel] showed an IC50 in series [1] of 7 µM.
As to `OC[C@H]1O[C@@](CO)(O[C@H]2O[C@H](CO)[C@@H](O)[C@H](O)[C@H]2O)[C@@H](O)[C@@H]1O` [Sucrose, sucrose], the Dv90 in series [2] was determined as 155 nm; in series [3] (setting [6]) it was 58.5 nm; in series [3] (setting [7]), 533 nm; in series [3] (setting [8]), 1640 nm; in series [5] (setting [9]), 120 nm; in series [5] (setting [10]) it was 120 nm. Moreover, the PDI in series [2] is 0.207; in series [3] (setting [6]), 0.390; in series [3] (setting [7]) it was 0.484; in series [3] (setting [8]), 0.506; in series [5] (setting [9]) it was 0.081; in series [5] (setting [10]), 0.081. The PDI in series [5] (setting [11]) is given as 0.110; in series [5] (setting [12]) it was 0.125. Further, the “Reconstituted Solution appearance” value in series [2] is recorded as “precipitation”. Besides, the Zave is listed as 197.2 nm in series [2]; 142.4 nm in series [3] (setting [6]); 219.3 nm in series [3] (setting [7]); 200.2 nm in series [3] (setting [8]); 90.62 nm in series [5] (setting [9]); 91.37 nm in series [5] (setting [10]). Moreover, the Zave was 92.79 nm in series [5] (setting [11]) and 94.72 nm in series [5] (setting [12]). In addition, the “outcome after lyophilization (in place of particle size)” value in series [4] is “Precipitated”. In addition, the “Filtration Loss (0.2 μm PES Filter)” value in series [5] (setting [9]) is recorded as 2%; in series [5] (setting [10]), 2%; in series [5] (setting [11]), 10%; in series [5] (polymer 31.25 mg/mL (Doce. 1.50), cryoprotectant 100 mg/mL (3.2:1 w/w)), 15%. The “Lyophilized preparation Appearance” value in series [5] (setting [9]), in series [5] (setting [10]), in series [5] (setting [11]) and in series [5] (setting [12]) was “good” each time. Further, the “Recon. Solution Appearance” value in series [5] (setting [9]) is “good”; in series [5] (setting [10]) it was “good”; in series [5] (setting [11]), “good”; in series [5] (setting [12]) it was “slight”.
Turning to doxorubicin 5050 PLGA amide, in series [1] (24, 48 and 72 hours of incubation), the “growth of B16.F10 cells” value was “inhibited the growth of B16.F10 cells in a dose and time dependent manner”.
